Reference: ChEMBL document CHEMBL1130223 (J Med Chem, 1997)
Calls of active or inactive are those of the source. The rule behind the calls is not given here.

Target: 5-hydroxytryptamine receptor 4 (Rattus norvegicus, UniProt Q62758)
Test: Inhibition of radiolabeled [3H]GR-113808 ligand binding to 5-hydroxytryptamine 4 receptor
Conditions: not given

5-hydroxytryptamine receptor 4, sequence (Q62758 whole entry): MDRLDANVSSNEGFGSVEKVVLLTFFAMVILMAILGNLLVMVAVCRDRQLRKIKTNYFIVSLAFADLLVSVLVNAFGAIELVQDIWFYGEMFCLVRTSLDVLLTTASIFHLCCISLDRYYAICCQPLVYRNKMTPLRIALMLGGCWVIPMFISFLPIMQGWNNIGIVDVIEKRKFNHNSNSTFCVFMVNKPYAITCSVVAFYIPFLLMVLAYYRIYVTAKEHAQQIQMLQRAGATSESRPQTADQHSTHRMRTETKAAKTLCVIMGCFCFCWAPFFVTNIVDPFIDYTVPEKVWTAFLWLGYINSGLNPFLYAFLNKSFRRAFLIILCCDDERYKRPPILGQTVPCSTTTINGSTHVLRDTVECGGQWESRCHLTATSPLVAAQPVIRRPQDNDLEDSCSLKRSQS

Row | SMILES | IC50 [nM]
1 | Fc1ccc2c(c1)nc(N1CCNCC1)c1cccn12 | > 10000
2 | c1ccc2nc(N3CCNCC3)ccc2c1 [QUIPAZINE] | > 10000
3 | CN1CCN(c2nc3cc(F)ccc3n3cccc23)CC1 | > 10000
4 | CN1CCN(c2nc3ccccc3n3cccc23)CC1 | > 10000
5 | Fc1cccc2nc(N3CCNCC3)c3cccn3c12 | > 10000

Target: T1, Serotonin 3 (5-HT3) receptor (Rattus norvegicus, UniProt P35563+Q9JJ16)
T1 sequence (P35563 whole entry): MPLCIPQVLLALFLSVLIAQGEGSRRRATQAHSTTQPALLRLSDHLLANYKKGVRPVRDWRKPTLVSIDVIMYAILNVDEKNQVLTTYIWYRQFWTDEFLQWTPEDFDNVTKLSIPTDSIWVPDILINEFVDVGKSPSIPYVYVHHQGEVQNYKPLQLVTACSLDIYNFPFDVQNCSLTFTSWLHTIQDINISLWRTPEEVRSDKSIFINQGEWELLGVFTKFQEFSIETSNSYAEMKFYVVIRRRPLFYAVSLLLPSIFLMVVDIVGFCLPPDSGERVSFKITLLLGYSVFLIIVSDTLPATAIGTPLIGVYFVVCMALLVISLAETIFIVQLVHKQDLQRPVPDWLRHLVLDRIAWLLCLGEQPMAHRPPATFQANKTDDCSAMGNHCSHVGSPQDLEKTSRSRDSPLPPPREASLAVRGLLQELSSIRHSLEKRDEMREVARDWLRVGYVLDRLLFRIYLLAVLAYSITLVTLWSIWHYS
T1 sequence (Q9JJ16 whole entry): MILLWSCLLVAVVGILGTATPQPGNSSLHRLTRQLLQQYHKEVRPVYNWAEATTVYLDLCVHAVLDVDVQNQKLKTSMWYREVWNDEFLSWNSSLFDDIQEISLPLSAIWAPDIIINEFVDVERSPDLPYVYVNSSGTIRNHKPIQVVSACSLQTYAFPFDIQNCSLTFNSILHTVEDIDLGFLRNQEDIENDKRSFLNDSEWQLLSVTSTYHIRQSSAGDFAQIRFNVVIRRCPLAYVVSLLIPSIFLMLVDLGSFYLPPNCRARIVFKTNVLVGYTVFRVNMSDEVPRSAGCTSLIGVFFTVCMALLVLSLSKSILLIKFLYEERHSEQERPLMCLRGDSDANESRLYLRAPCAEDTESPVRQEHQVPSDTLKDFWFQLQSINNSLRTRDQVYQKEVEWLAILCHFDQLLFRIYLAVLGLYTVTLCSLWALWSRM
Test: Inhibition of [3H]BRL-43694 binding to 5-hydroxytryptamine 3 receptor of rat cortical homogenate; Not active at 10000 nm
Conditions: not given

Row | SMILES | IC50
6 | CN1CCN(c2nc3cc(C(F)(F)F)ccc3n3cccc23)CC1 | Not Active

Target: T2, Serotonin 3 (5-HT3) receptor (Rattus norvegicus) (UniProt P35563+Q9JJ16)
Test: The stimulation of cardiac 5-HT3 receptors evaluated by using von Bezold-Jarisch reflex test inurethane-anesthetized rats; Pure Antagonist
Type: functional
Conditions: filed as antagonist

Row | SMILES | Behavior
7 | CN1CCN(c2nc3cc(F)ccc3n3cccc23)CC1 | Antagonist

Target: T2, Serotonin 3 (5-HT3) receptor (Rattus norvegicus)
Test: The stimulation of cardiac 5-HT3 receptors evaluated by using von Bezold-Jarisch reflex test in urethane-anesthetized rats; pure agonist
Type: functional
Conditions: filed as agonist

Row | SMILES | Behavior
8 | CN1CCN(c2cnc3ccccc3n2)CC1 | Agonist

Target: T1, Serotonin 3 (5-HT3) receptor
Test: Inhibition of radiolabeled [3H]-Zacopride ligand binding to 5-hydroxytryptamine 3 receptor
Type: protein-complex assay
Conditions: not given

Row | SMILES | IC50 [nM]
9 | CN1C[C@@H](NS(=O)(=O)N(C)C)C[C@@H]2c3cccc4c3c(cn4C)C[C@H]21 [MESULERGINE] | 2.13

Target: T2, Serotonin 3 (5-HT3) receptor (Rattus norvegicus)
Test: Dose required to stimulate cardiac 5-HT3 receptors evaluated by using von Bezold-Jarisch reflex test in urethane-anesthetized rats
Type: functional
Conditions: not given

Row | SMILES | ID50 [mg/kg]
10 | CN1CCN(c2nc3cc(F)ccc3n3cccc23)CC1 | 0.6

Tested on: NG108-15
Test: Agonist/antagonist activity by observing the uptake of [14C]guanidinium, on the neuroblastoma-glioma hybrid NG108-15 cells; Not active at 10000 nm
Type: functional, cell-based
Conditions: not given

Row | SMILES | Efficacy
11 | CN1CCN(c2nc3cc(C(F)(F)F)ccc3n3cccc23)CC1 | inactive

Tested on: NG108-15
Test: Effective concentration for uptake of [14C]guanidinium on NG108-15 cells
Type: functional, cell-based
Conditions: Murinae

Row | SMILES | EC50 [nM]
12 | Fc1ccc2c(c1)nc(N1CCNCC1)c1cccn12 | 3.5
13 | CCCN1CCN(c2nc3ccccc3n3cccc23)CC1 | 8.5
14 | CN1CCN(c2cnc3ccccc3n2)CC1 | 510
15 | c1ccc2nc(N3CCNCC3)ccc2c1 [QUIPAZINE] | 25
16 | CN1CCN(c2nc3cccc(F)c3n3cccc23)CC1 | 6.5
17 | CN1CCN(c2nc3cc(F)ccc3n3cccc23)CC1 | 3
18 | CN1CCN(c2nc3ccccc3n3cccc23)CC1 | 10
19 | Fc1cccc2nc(N3CCNCC3)c3cccn3c12 | 98

Target: T1, Serotonin 3 (5-HT3) receptor
Test: Inhibition of [3H]BRL-43694 binding to 5-hydroxytryptamine 3 receptor of rat cortical homogenate.
Conditions: not given

Row | SMILES | IC50 [nM]
20 | Fc1ccc2c(c1)nc(N1CCNCC1)c1cccn12 | 5.4
21 | CCCN1CCN(c2nc3ccccc3n3cccc23)CC1 | 51
22 | CN1CCN(c2cnc3ccccc3n2)CC1 | 22
23 | c1ccc2nc(N3CCNCC3)ccc2c1 [QUIPAZINE] | 6.2
24 | CN1CCN(c2nc3cccc(F)c3n3cccc23)CC1 | 0.44
25 | CN1CCN(c2nc3cc(F)ccc3n3cccc23)CC1 | 0.81
26 | Fc1cccc2nc(N3CCNCC3)c3cccn3c12 | 3.9

Target: 5-hydroxytryptamine receptor 1B (Rattus norvegicus, UniProt P28564)
Sequence (P28564 whole entry): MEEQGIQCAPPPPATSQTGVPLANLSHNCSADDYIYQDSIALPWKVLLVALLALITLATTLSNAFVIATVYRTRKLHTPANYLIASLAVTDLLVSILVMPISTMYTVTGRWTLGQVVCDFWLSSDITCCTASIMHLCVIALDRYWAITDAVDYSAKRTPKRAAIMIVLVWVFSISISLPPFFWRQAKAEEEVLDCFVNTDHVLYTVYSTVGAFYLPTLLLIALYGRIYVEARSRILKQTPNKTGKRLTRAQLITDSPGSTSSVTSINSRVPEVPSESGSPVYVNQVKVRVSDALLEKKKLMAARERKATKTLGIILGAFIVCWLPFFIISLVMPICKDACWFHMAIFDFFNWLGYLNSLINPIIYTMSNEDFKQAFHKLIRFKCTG
Test: Inhibition of radiolabeled [3H]-5-HT ligand binding to 5-hydroxytryptamine 1B receptor
Conditions: not given

Row | SMILES | IC50 [nM]
27 | Fc1ccc2c(c1)nc(N1CCNCC1)c1cccn12 | 167
28 | c1ccc2nc(N3CCNCC3)ccc2c1 [QUIPAZINE] | 380
29 | CN1CCN(c2nc3cc(F)ccc3n3cccc23)CC1 | 371
30 | CN1CCN(c2nc3ccccc3n3cccc23)CC1 | 232
31 | Fc1cccc2nc(N3CCNCC3)c3cccn3c12 | 106

Target: 5-hydroxytryptamine receptor 2A (Rattus norvegicus, UniProt P14842)
Sequence (P14842 whole entry): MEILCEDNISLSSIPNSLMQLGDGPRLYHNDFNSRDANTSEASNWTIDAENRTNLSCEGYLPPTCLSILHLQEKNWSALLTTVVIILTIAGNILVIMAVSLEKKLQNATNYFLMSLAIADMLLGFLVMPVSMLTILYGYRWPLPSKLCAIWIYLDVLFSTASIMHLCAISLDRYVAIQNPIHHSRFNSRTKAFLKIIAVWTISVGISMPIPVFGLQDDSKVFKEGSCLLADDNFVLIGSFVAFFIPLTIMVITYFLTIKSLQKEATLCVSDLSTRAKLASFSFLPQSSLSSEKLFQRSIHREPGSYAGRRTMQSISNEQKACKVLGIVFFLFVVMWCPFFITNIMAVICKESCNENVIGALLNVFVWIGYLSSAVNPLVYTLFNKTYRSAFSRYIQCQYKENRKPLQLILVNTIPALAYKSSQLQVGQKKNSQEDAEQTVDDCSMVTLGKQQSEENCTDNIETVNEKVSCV
Test: Inhibition of radiolabeled [3H]-Ketanserin ligand binding to 5-hydroxytryptamine 2A receptor
Conditions: not given

Row | SMILES | IC50 [nM]
32 | Fc1ccc2c(c1)nc(N1CCNCC1)c1cccn12 | 489
33 | c1ccc2nc(N3CCNCC3)ccc2c1 [QUIPAZINE] | 1400
34 | CN1CCN(c2nc3cc(F)ccc3n3cccc23)CC1 | 124
35 | CN1CCN(c2nc3ccccc3n3cccc23)CC1 | 43
36 | Fc1cccc2nc(N3CCNCC3)c3cccn3c12 | 761

Target: T2, Serotonin 3 (5-HT3) receptor (Rattus norvegicus)
Test: The stimulation of cardiac 5-HT3 receptors evaluated by using von Bezold-Jarisch reflex test in urethane-anesthetized rats; pure antagonist
Type: functional
Conditions: filed as antagonist

Row | SMILES | Behavior
37 | Fc1ccc2c(c1)nc(N1CCNCC1)c1cccn12 | Antagonist
38 | Fc1cccc2nc(N3CCNCC3)c3cccn3c12 | Antagonist

Target: T2, Serotonin 3 (5-HT3) receptor (Rattus norvegicus)
Test: Dose required to stimulate cardiac 5-HT3 receptors evaluated by using von Bezold-Jarisch reflex test in urethane-anesthetized rats after intravenous administration
Type: functional, organism-based
Conditions: not given

Row | SMILES | ID50 [mg/kg]
39 | Fc1ccc2c(c1)nc(N1CCNCC1)c1cccn12 | 0.01
40 | CCCN1CCN(c2nc3ccccc3n3cccc23)CC1 | 0.24
41 | CN1CCN(c2cnc3ccccc3n2)CC1 | 0.06
42 | CN1CCN(c2nc3cccc(F)c3n3cccc23)CC1 | 0.12
43 | Fc1cccc2nc(N3CCNCC3)c3cccn3c12 | 0.07

Target: T3, 5-hydroxytryptamine receptor 2C (Rattus norvegicus, UniProt P08909)
T3 sequence (P08909 whole entry): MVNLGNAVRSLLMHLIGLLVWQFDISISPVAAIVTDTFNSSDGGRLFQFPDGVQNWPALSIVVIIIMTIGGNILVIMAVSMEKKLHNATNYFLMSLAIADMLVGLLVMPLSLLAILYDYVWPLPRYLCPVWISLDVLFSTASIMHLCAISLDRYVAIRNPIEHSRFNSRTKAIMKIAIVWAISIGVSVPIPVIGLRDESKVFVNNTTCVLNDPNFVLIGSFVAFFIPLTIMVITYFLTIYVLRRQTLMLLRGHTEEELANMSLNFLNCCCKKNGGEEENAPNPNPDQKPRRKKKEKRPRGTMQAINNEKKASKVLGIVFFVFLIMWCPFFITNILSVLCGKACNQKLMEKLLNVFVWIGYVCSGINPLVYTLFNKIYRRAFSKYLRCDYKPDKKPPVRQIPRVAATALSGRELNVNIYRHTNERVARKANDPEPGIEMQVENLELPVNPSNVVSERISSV
Test: Inhibition of radiolabeled [3H]mesulergine ligand binding to 5-hydroxytryptamine 2C receptor
Conditions: not given

Row | SMILES | IC50 [nM]
44 | Fc1ccc2c(c1)nc(N1CCNCC1)c1cccn12 | 2800
45 | c1ccc2nc(N3CCNCC3)ccc2c1 [QUIPAZINE] | 470
46 | CN1CCN(c2nc3cc(F)ccc3n3cccc23)CC1 | 413
47 | CN1CCN(c2nc3ccccc3n3cccc23)CC1 | 780
48 | Fc1cccc2nc(N3CCNCC3)c3cccn3c12 | 784

Tested on: NG108-15
Test: Agonist/antagonist activity by observing the uptake of [14C]guanidinium, on the neuroblastoma-glioma hybrid NG108-15 cells; pure agonist
Type: functional, cell-based
Conditions: filed as agonist

Row | SMILES | Efficacy
49 | Fc1ccc2c(c1)nc(N1CCNCC1)c1cccn12 | Agonist
50 | CCCN1CCN(c2nc3ccccc3n3cccc23)CC1 | Agonist
51 | CN1CCN(c2cnc3ccccc3n2)CC1 | Agonist
52 | c1ccc2nc(N3CCNCC3)ccc2c1 [QUIPAZINE] | Agonist
53 | CN1CCN(c2nc3cccc(F)c3n3cccc23)CC1 | Agonist
54 | CN1CCN(c2nc3cc(F)ccc3n3cccc23)CC1 | Agonist
55 | CN1CCN(c2nc3ccccc3n3cccc23)CC1 | Agonist
56 | Fc1cccc2nc(N3CCNCC3)c3cccn3c12 | Agonist

Target: T4, 5-hydroxytryptamine receptor 1A (Rattus norvegicus, UniProt P19327)
T4 sequence (P19327 whole entry): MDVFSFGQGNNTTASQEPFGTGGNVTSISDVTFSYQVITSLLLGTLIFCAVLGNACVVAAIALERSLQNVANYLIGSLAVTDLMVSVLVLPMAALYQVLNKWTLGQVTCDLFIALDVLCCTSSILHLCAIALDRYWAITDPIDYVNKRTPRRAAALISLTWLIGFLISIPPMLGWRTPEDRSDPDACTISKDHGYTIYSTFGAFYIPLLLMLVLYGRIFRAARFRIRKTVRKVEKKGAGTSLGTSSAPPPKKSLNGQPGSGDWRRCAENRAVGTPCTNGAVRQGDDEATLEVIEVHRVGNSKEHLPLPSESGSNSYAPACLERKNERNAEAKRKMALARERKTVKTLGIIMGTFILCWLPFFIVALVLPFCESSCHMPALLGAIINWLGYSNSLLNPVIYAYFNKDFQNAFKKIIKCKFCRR
Test: Inhibition of radiolabeled [3H]-8-OH-DPAT ligand binding to 5-hydroxytryptamine 1A receptor
Conditions: not given

Row | SMILES | IC50 [nM]
57 | Fc1ccc2c(c1)nc(N1CCNCC1)c1cccn12 | 151
58 | CN1CCN(c2nc3cc(F)ccc3n3cccc23)CC1 | 138
59 | CN1CCN(c2nc3ccccc3n3cccc23)CC1 | 89
60 | Fc1cccc2nc(N3CCNCC3)c3cccn3c12 | 268

Species: Rattus norvegicus
Test: Inhibitory activity for 5-HT uptake was determined using [3H]- Citalopram
Type: functional
Conditions: not given

Row | SMILES | IC50 [nM]
61 | Fc1ccc2c(c1)nc(N1CCNCC1)c1cccn12 | 203
62 | c1ccc2nc(N3CCNCC3)ccc2c1 [QUIPAZINE] | 204
63 | CN1CCN(c2nc3cc(F)ccc3n3cccc23)CC1 | 232
64 | CN1CCN(c2nc3ccccc3n3cccc23)CC1 | 214
65 | Fc1cccc2nc(N3CCNCC3)c3cccn3c12 | 1130

Target: T2, Serotonin 3 (5-HT3) receptor (Rattus norvegicus)
Test: The stimulation of cardiac 5-HT3 receptors evaluated by using von Bezold-Jarisch reflex test in urethane-anesthetized rats; Partial agonist
Type: functional
Conditions: filed as partial agonist

Row | SMILES | Behavior
66 | CCCN1CCN(c2nc3ccccc3n3cccc23)CC1 | Partial agonist
67 | CN1CCN(c2nc3cccc(F)c3n3cccc23)CC1 | Partial agonist

Tested on: not listed separately
Test: Potency to cross blood-brain barrier was assessed
Type: functional
Conditions: not given

Row | SMILES | Ratio
68 | Fc1ccc2c(c1)nc(N1CCNCC1)c1cccn12 | 37.5
69 | CN1CCN(c2nc3cc(F)ccc3n3cccc23)CC1 | 17.5
